According to US4692443A, “3-bicyclicpyridinium-methyl cephalosporins” (Eli Lilly and Company, priority 1984, dated 1987):
In brackets after ≈: the same amount, converted by molar mass. Like-named read-outs stand apart in the source and are kept apart here.

Columns and labels:
Format in all cases: cell-based
[1] = test system: Staph. aureus X1.1; assay: standard in vitro agar dilution assay (MIC); details: Staphylococcus aureus
[2] = test system: Salmonella X514; assay: standard in vitro agar dilution assay (MIC)
[3] = test system: Klebsiella X26; assay: standard in vitro agar dilution assay (MIC)
[4] = test system: Klebsiella KAE; assay: standard in vitro agar dilution assay (MIC); details: Klebsiella strain KAE; read-out: Agar Dilution MIC
[5] = test system: E. coli TEM; assay: standard in vitro agar dilution assay (MIC); details: Escherichia coli, read-out: Agar Dilution MIC
[6] = test system: Staph. aureus V41; assay: standard in vitro agar dilution assay (MIC); details: Staphylococcus aureus
[7] = test system: E. coli N10; assay: standard in vitro agar dilution assay (MIC); details: Escherichia coli
[8] = test system: Staph. epi 222; assay: standard in vitro agar dilution assay (MIC); details: Staph. epi strain 222
[9] = test system: Klebsiella X68; assay: standard in vitro agar dilution assay (MIC)
[10] = test system: Staph. aureus X400; assay: standard in vitro agar dilution assay (MIC); details: Staphylococcus aureus; Staph. aureus strain X400
[11] = test system: Strep. D X66; assay: standard in vitro agar dilution assay (MIC); details: Strep. D strain X66
[12] = test system: Pseudomonas X239; assay: standard in vitro agar dilution assay (MIC); details: Pseudomonas strain X239
[13] = test system: Pseudomonas X528; assay: standard in vitro agar dilution assay (MIC); details: Pseudomonas strain X528
Description: The antibacterial activity of several representative compounds of the invention has been evaluated in standard in vitro agar dilution assays. The following Table presents typical minimum inhibitory concentrations (MIC's) in μg /ml for exemplary compounds when evaluated against typical Gram + and Gram - microorganism.

[14] = test system: H. influ. 76; assay: standard in vitro agar dilution assay (MIC); details: H. influ. strain 76; read-out: Agar Dilution MIC
[15] = test system: Strep. A C203; assay: standard in vitro agar dilution assay (MIC); details: Strep. A strain C203
[16] = test system: Strep. D 9960; assay: standard in vitro agar dilution assay (MIC); details: Strep. D strain 9960
[17] = test system: H. influ. C.L.; assay: standard in vitro agar dilution assay (MIC); details: read-out: Agar Dilution MIC
[18] = test system: Serratia X99; assay: standard in vitro agar dilution assay (MIC)
[19] = test system: Staph. aureus S13E; assay: microbe, parasite or virus in culture; details: Staphylococcus aureus, read-out: Agar Dilution MIC
[20] = test system: E. coli EC14; assay: standard in vitro agar dilution assay (MIC); details: Escherichia coli
[21] = test system: Staph. epi EPI1; assay: standard in vitro agar dilution assay (MIC); details: Staph. epi strain EPI1
[22] = test system: Strep. PN PARK; assay: standard in vitro agar dilution assay (MIC); details: Strep. PN strain PARK
[23] = test system: Enterobacter aerogenes C32; assay: standard in vitro agar dilution assay (MIC); details: Klebsiella aerogenes
[24] = test system: Enterobacter cloacae EB5; assay: standard in vitro agar dilution assay (MIC)
[25] = Staph. aureus strain X1.1, read-out: Agar Dilution MIC
[26] = Salmonella strain X514, read-out: Agar Dilution MIC
[27] = Klebsiella strain X26, read-out: Agar Dilution MIC
[28] = Staph. aureus strain V41, read-out: Agar Dilution MIC
[29] = E. coli strain N10, read-out: Agar Dilution MIC
[30] = Klebsiella strain X68, read-out: Agar Dilution MIC
[31] = Serratia strain X99, read-out: Agar Dilution MIC
[32] = E. coli strain EC14, read-out: Agar Dilution MIC
[33] = Enterobacter aerogenes strain C32, read-out: Agar Dilution MIC
[34] = Klebsiella, X68, read-out: Agar Dilution MIC
[35] = Enterobacter cloacae, EB5, read-out: Agar Dilution MIC
[36] = Serratia, X99, read-out: Agar Dilution MIC
[37] = EC14, read-out: Agar Dilution MIC
[38] = C32, read-out: Agar Dilution MIC

SMILES	MIC [1, 25] [µg/mL]	MIC [2, 26] [µg/mL]	MIC [3, 27] [µg/mL]	MIC [4] [µg/mL]	MIC [6, 28] [µg/mL]	MIC [7, 29] [µg/mL]	MIC [8] [µg/mL]	MIC [10] [µg/mL]	MIC [11] [µg/mL]	MIC [12] [µg/mL]	MIC [13] [µg/mL]	MIC [15] [µg/mL]	MIC [16] [µg/mL]	MIC ([17]; H. influ. strain C.L.) [µg/mL]	MIC [19] [µg/mL]	MIC [21] [µg/mL]	MIC [22] [µg/mL]	MIC [23, 33] [µg/mL]	MIC [9, 34] [µg/mL]	MIC [24, 35] [µg/mL]	other results
CO/N=C(\C(=O)NC1C(=O)N2C(C(=O)[O-])=C(C[n+]3ccc4[nH]c(C)nc4c3)CSC12)c1csc(N)n1 (stereo not drawn) [Example 5, syn-7-[2-(2-aminothiazol-4-yl)-2-methoxyiminoacetamido]-3-(2-methyl-1H-imidazolo[4,5-c]pyridinium-5-ylmethyl)-3-cephem-4-carboxylate]	2 (≈ 3.78 µM)	< 0.008	< 0.008	2 (≈ 3.78 µM)	8 (≈ 15.1 µM)	0.03 (≈ 0.0568 µM)	1 (≈ 1.89 µM)	32 (≈ 60.5 µM)	> 128	2 (≈ 3.78 µM)	2 (≈ 3.78 µM)	< 0.008	8 (≈ 15.1 µM)	0.015 (≈ 0.0284 µM)	8 (≈ 15.1 µM)	4 (≈ 7.57 µM)	< 0.008	0.03 (≈ 0.0568 µM)	–	–	MIC ([5]; E. coli strain TEM): < 0.008 µg/mL; MIC [9, 30]: 0.015 µg/mL (≈ 0.0284 µM); MIC [14]: 0.015 µg/mL (≈ 0.0284 µM); MIC [18, 31]: 0.03 µg/mL (≈ 0.0568 µM); MIC [20, 32]: < 0.008 µg/mL
CO/N=C(\C(=O)NC1C(=O)N2C(C(=O)[O-])=C(C[n+]3ccc4c(c3)ncn4C)CSC12)c1csc(N)n1 (stereo not drawn) [Example 4, syn-7-[2-(2-aminothiazol-4-yl)-2-methoxyiminoacetamido]-3-(1-methyl-1H-imidazolo[4,5-c]pyridinium-5-ylmethyl)-3-cephem-4-carboxylate]	1 (≈ 1.89 µM)	–	0.015 (≈ 0.0284 µM)	4 (≈ 7.57 µM)	8 (≈ 15.1 µM)	0.03 (≈ 0.0568 µM)	1 (≈ 1.89 µM)	64 (≈ 121 µM)	> 128	2 (≈ 3.78 µM)	1 (≈ 1.89 µM)	0.15 (≈ 0.284 µM)	2 (≈ 3.78 µM)	–	8 (≈ 15.1 µM)	2 (≈ 3.78 µM)	0.15 (≈ 0.284 µM)	0.03 (≈ 0.0568 µM)	–	–	MIC ([2]; Salmonella, X514, read-out: Agar Dilution MIC): 0.05 µg/mL (≈ 0.0946 µM); MIC ([5]; E. coli strain TEM): 0.015 µg/mL (≈ 0.0284 µM); MIC [9, 30]: 0.015 µg/mL (≈ 0.0284 µM); MIC ([24]; Enterobacter cloacae strain EB5, read-out: Agar Dilution MIC): 0.03 µg/mL (≈ 0.0568 µM); MIC [20, 32]: < 0.008 µg/mL
CC(C)(O/N=C(\C(=O)NC1C(=O)N2C(C(=O)[O-])=C(C[n+]3ccc4[nH]cnc4c3)CSC12)c1csc(N)n1)C(=O)O (stereo not drawn) [Example 1, syn-7-[2-(2-Aminothiazol-4-yl)-2-(2-carboxyprop-2-yl)oxyiminoacetamido]-3-(1H-imidazolo[4,5c]pyridinium-5-ylmethyl)-3-cephem-4-carboxylate]	8 (≈ 13.6 µM)	0.5 (≈ 0.852 µM)	–	1 (≈ 1.7 µM)	–	–	16 (≈ 27.3 µM)	128 (≈ 218 µM)	> 128	2 (≈ 3.41 µM)	8 (≈ 13.6 µM)	–	16 (≈ 27.3 µM)	0.03 (≈ 0.0511 µM)	32 (≈ 54.6 µM)	32 (≈ 54.6 µM)	–	1 (≈ 1.7 µM)	0.125 (≈ 0.213 µM)	0.25 (≈ 0.426 µM)	MIC ([3]; Klebsiella, X26, read-out: Agar Dilution MIC): 0.125 µg/mL (≈ 0.213 µM); MIC [5]: 0.125 µg/mL (≈ 0.213 µM); MIC ([6]; V41, read-out: Agar Dilution MIC): 32 µg/mL (≈ 54.6 µM); MIC ([7]; N10, read-out: Agar Dilution MIC): 0.5 µg/mL (≈ 0.852 µM); MIC [18, 36]: 0.5 µg/mL (≈ 0.852 µM); MIC [20, 37]: 0.125 µg/mL (≈ 0.213 µM)
CO/N=C(\C(=O)NC1C(=O)N2C(C(=O)[O-])=C(C[n+]3ccc4oc(C)nc4c3)CSC12)c1csc(N)n1 (stereo not drawn) [Example 11, syn-7-[2-(2-aminothiazol-4-yl)-2-methoxyiminoacetamido]-3-(2-methyloxazolo[4,5-c]pyridinium-5-ylmethyl)-3-cephem-4-carboxylate]	–	0.03 (≈ 0.0567 µM)	0.015 (≈ 0.0283 µM)	4 (≈ 7.55 µM)	8 (≈ 15.1 µM)	–	1 (≈ 1.89 µM)	32 (≈ 60.4 µM)	> 128	2 (≈ 3.78 µM)	4 (≈ 7.55 µM)	0.015 (≈ 0.0283 µM)	8 (≈ 15.1 µM)	–	8 (≈ 15.1 µM)	4 (≈ 7.55 µM)	0.015 (≈ 0.0283 µM)	–	–	0.125 (≈ 0.236 µM)	MIC ([1]; X1.1, read-out: Agar Dilution MIC): 0.5 µg/mL (≈ 0.944 µM); MIC [17]: 0.125 µg/mL (≈ 0.236 µM); MIC [18, 36]: 0.125 µg/mL (≈ 0.236 µM)
CO/N=C(\C(=O)NC1C(=O)N2C(C(=O)[O-])=C(C[n+]3ccc4[nH]c(-c5ccccc5)nc4c3)CSC12)c1csc(N)n1 (stereo not drawn) [Example 9, syn-7-[2-(2-aminothiazol-4-yl)-2-methoxyiminoacetamido]-3-(2-phenyl-1H-imidazolo[4,5-c]pyridinium-5-ylmethyl)-3-cephem-4-carboxylate]	2 (≈ 3.39 µM)	0.5 (≈ 0.847 µM)	0.015 (≈ 0.0254 µM)	2 (≈ 3.39 µM)	8 (≈ 13.5 µM)	1 (≈ 1.69 µM)	2 (≈ 3.39 µM)	32 (≈ 54.2 µM)	> 128	–	–	< 0.008	4 (≈ 6.77 µM)	0.5 (≈ 0.847 µM)	8 (≈ 13.5 µM)	4 (≈ 6.77 µM)	< 0.008	–	0.5 (≈ 0.847 µM)	0.5 (≈ 0.847 µM)	MIC [18, 31]: 1 µg/mL (≈ 1.69 µM); MIC [20, 37]: 0.125 µg/mL (≈ 0.212 µM); MIC [23, 38]: 0.5 µg/mL (≈ 0.847 µM)
CO/N=C(\C(=O)NC1C(=O)N2C(C(=O)[O-])=C(C[n+]3ccc4[nH]c(-c5cccs5)nc4c3)CSC12)c1csc(N)n1 (stereo not drawn) [Example 8, syn-7-[2-(2-aminothiazol-4-yl)-2-methoxyiminoacetamido]-3-[2-(2-thienyl)-1H-imidazolo[4,5-c]pyridinium-5-ylmethyl)-3-cephem-4-carboxylate]	2 (≈ 3.35 µM)	0.5 (≈ 0.838 µM)	0.015 (≈ 0.0251 µM)	4 (≈ 6.7 µM)	8 (≈ 13.4 µM)	1 (≈ 1.68 µM)	2 (≈ 3.35 µM)	32 (≈ 53.6 µM)	> 128	–	–	< 0.008	4 (≈ 6.7 µM)	–	8 (≈ 13.4 µM)	4 (≈ 6.7 µM)	< 0.008	–	0.5 (≈ 0.838 µM)	0.5 (≈ 0.838 µM)	MIC [17]: 0.25 µg/mL (≈ 0.419 µM); MIC [18, 36]: 0.5 µg/mL (≈ 0.838 µM); MIC [23, 38]: 0.5 µg/mL (≈ 0.838 µM)
